From ChEMBL document CHEMBL1201862, “PubChem BioAssay data set” (2004)
Activity calls are given as the source filed them.

How the values were obtained:
[1] = ATP-based viability loss in HEK293T cells – cell-based, CellTiter-Glo luminescence, cherry-picked samples, set 4, cytotoxicity control, dose response (AID 743441); type: functional; conditions: HEK293
[2] = general mammalian cell viability loss – inhibitor set, cherry-pick, set 2, cytotoxicity control for miR-122 modulator project, dose response (AID 720697); type: functional, cell-based
[3] = decrease of insulin promoter-GFP reporter – imaging, high-content screening, mouse beta cells (AID 1628); type: functional; conditions: MIN6
[4] = MIN6 cell viability loss – mouse insulinoma, cytotoxicity control, dose response (AID 2122); type: functional;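 note: confirmatory high-throughput counterscreen run to flag cytotoxic compounds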
[5] = microbe, parasite or virus in culture; type: functional; conditions: Mycobacterium tuberculosis
[6] = loss of viability in HepG2 cells – cell-based, CellTiter-Glo, cherry-picked, cytotoxicity control for Shn3 inhibitor project, dose response (AID 624134); type: functional
[7] = reduction of Shn3 3'UTR-driven luciferase in osteoblasts – cell-based, Clone20 osteoblasts, firefly luciferase, cherry-picked, dose response (AID 624132); type: functional;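 note: firefly luciferase luminescence from reporter carrying the Shn3 3'UTR in osteoblasts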
[8] = viability loss in human hepatoma cells – cell-based, CellTiter-Glo luminescence, cherry-pick, set 2, cytotoxicity control, dose response (AID 743395); type: functional
[9] = non-specific 3'UTR reporter inhibition in Clone20-Shn3RL – cell-based, Renilla luciferase, cherry-picked, counter-screen for Shn3 inhibitor project, dose response (AID 624133); type: functional
[10] = Shn3 3'UTR reporter signal decrease – cell-based, Clone20 osteoblasts, firefly luciferase, cherry-pick, set 2, Schnurri-3 inhibitor project, dose response (AID 720490); type: functional;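 note: actives lower the luminescence signal as inhibitors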
[11] = target: Endoplasmic reticulum aminopeptidase 1 (Homo sapiens, UniProt Q9NZ08); assay: inhibition of human ERAP1 enzyme activity – biochemical, cherry-pick, set 2, plate reader, dose response (AID 743314)
Aminopeptidase N = target: T1, Aminopeptidase N (Plasmodium falciparum FcB1/Columbia, UniProt O96935); assay: malaria alanyl aminopeptidase activity blockers – biochemical, fluorogenic H-Leu-NHMec substrate, 1536-well (AID 1445); design: species or system Plasmodium falciparum 3D7, 3D7
T1 sequence (O96935 whole entry): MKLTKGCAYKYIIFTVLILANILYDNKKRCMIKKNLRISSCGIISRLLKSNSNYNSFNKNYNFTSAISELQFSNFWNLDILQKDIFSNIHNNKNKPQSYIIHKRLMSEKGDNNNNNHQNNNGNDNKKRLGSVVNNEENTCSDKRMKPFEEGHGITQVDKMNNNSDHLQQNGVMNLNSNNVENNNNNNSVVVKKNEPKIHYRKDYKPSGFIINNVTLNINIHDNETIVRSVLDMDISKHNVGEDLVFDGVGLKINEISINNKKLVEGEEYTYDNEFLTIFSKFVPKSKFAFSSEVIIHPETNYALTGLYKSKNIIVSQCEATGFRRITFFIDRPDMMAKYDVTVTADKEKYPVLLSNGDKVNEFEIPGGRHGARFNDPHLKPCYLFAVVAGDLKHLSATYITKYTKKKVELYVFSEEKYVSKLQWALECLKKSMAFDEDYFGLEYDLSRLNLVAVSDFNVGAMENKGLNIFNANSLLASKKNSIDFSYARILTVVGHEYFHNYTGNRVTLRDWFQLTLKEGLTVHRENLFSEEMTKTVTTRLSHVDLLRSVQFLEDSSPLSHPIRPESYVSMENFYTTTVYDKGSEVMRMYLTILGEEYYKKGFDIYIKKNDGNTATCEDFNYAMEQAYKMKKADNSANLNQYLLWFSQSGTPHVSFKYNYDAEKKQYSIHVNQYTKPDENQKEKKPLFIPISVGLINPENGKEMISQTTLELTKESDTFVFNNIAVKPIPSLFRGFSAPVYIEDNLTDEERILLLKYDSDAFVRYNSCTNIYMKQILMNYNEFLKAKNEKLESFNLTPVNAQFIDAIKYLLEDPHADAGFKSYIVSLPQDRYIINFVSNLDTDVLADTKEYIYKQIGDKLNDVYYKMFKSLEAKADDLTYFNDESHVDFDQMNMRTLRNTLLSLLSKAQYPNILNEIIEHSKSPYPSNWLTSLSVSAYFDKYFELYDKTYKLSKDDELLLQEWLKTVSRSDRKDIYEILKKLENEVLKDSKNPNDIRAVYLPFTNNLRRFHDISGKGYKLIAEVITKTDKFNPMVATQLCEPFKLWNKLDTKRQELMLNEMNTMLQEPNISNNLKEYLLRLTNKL

[12] = target: Metabotropic glutamate receptor 5 (Rattus norvegicus, UniProt P31424); assay: Identification of a glycine sulfonamide based non-MPEP site positive allosteric potentiator (PAM) of mGlu5 (calcium_assay).; type: functional
[13] = toxicity toward immortalized ovarian surface epithelium – cell-based, plate reader, dry powder samples, cytotoxicity control for PAX8 inhibitor project, dose response (AID 743045); type: functional
[14] = general cell-killing toxicity readout – plate reader, dry powder samples, cytotoxicity control for PAX8 inhibitor project, dose response (AID 743021); type: functional, cell-based
[15] = P. falciparum Dd2 growth inhibitors, dose response, SYBR Green, cherry-picked samples (AID 1159567); type: functional, cell-based
[16] = A2780 cell killing – plate reader, dry powder samples, cytotoxicity control, dose response (AID 743046); type: functional, cell-based
[17] = toxicity to human hepatoma HepG2 cells – cell-based, cherry-picked samples, cytotoxicity control, dose response (AID 1159577); type: functional
[18] = OVCAR8 cell viability loss – plate reader, dry powder samples, PAX8 project, dose response (AID 743197); type: functional, cell-based; conditions: OVCAR-8
[19] = OVCAR-3 cell viability loss – plate reader, dry powder samples, PAX8 inhibitor project, dose response (AID 743044); type: functional, cell-based
[20] = IGROV1 cell killing – plate reader, dry powder samples, PAX8 inhibitor project, dose response (AID 743043); type: functional, cell-based; conditions: IGROV-1
Paired box protein Pax-8 = Paired box protein Pax-8 (Homo sapiens, UniProt Q06710); assay: PAX8 transcriptional activity inhibition in RMG-I – RMG-I cells, luciferase, cherry-pick, dose response (AID 687027); type: functional, cell-based;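 note: luciferase reporter driven by Pax8 target thyroperoxidase promoter measured by SteadyGlo luminescence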
HeLa = assay: viability loss in HeLa cells – cell-based, ATP luminescence, cherry-pick samples, cytotoxicity control, dose response (AID 687004); type: functional; conditions: Homo sapiens
[21] = PAX8-dependent cell viability loss – plate reader, dry powder, dose response (AID 743049); type: functional, cell-based
[22] = COV362 cell viability loss – plate reader, dry powder, SA12, cytotoxicity control for PAX8 inhibitor project, dose response (AID 743144); type: functional, cell-based
[23] = PAX5 cellular inhibition readout – cell-based, plate reader, dry powder samples, selectivity assay for PAX8 inhibitor project, dose response (AID 743047); type: functional;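 note: HEK293 cells carrying a Pax5 driven CD19 promoter luciferase reporter; potency of inhibitors that lower reporter luminescence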
[24] = COV434 cell viability loss – plate reader, dry powder, SA7, cytotoxicity control for PAX8 inhibitor project, dose response (AID 743145); type: functional, cell-based
[25] = OV-90 cell viability loss – plate reader, dry powder, SA8, PAX8 inhibitor project, dose response (AID 743149); type: functional, cell-based
[26] = inhibitors acting on PAX2 in cells – cell-based, plate reader, dry powder samples, selectivity assay for PAX8 inhibitor project, dose response (AID 743048); type: functional;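 note: HEK293 cells carrying a WT1 promoter luciferase reporter driven by expressed Pax2; potency is for inhibition of Pax2 driven reporter signal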
Mu-type opioid receptor = Mu-type opioid receptor (Homo sapiens, UniProt P35372); assay: Late-stage results from the probe development effort to identify antagonists of OPRK1: luminescence-based cell-based dose response OPRM1 counterscreen.; type: functional
[27] = target: Delta-type opioid receptor (Homo sapiens, UniProt P41143); assay: Late-stage results from the probe development effort to identify antagonists of OPRK1: fluorescence-based cell-based dose response OPRD1 counterscreen.; type: functional
INS1 = assay: INS-1E survival protection against cytokine death – cell-based, luminescence, retest, dose response (AID 449756); type: functional; conditions: Rattus norvegicus;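 note: cell death triggered by IL-1 beta plus TNF-alpha plus IFN-gamma mixture; protective hits raise ATP signal compared with cytokine alone wells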
[28] = activation of miR-122 Renilla sensor silencing – cell-based, Huh7 psiCHECK-miR122, Renilla luciferase, cherry-picked, dose response (AID 651956); type: functional;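 note: huh7 hepatoma cells stably carrying a psiCHECK-2 miR-122 sensor plasmid; renilla luciferase signal reporting endogenous miR-122 activity after 48 h compound exposure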
[29] = general mammalian cell viability loss – activator set, cherry-pick, cytotoxicity control for miR-122 modulator project, dose response (AID 720690); type: functional, cell-based;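 note: HEK293T human cells scored for general mammalian cytotoxicity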
[30] = Dd2 malaria parasite growth inhibition potency – SYBR Green, dry powder samples, dose response (AID 1159566); type: functional, cell-based;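 note: potency for growth inhibition with lower SYBR green DNA signal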
[31] = growth inhibition of yeast DHODH-expressing 3D7 parasites – SYBR Green, dry powder samples, dose response (AID 1159570); type: functional, cell-based;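 note: parasite growth measured after 72 hours of compound exposure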
[32] = Dd2 parasite growth inhibition in erythrocytes – SYBR Green, dry powder samples, set 9, dose response (AID 1159568); type: functional, cell-based
[33] = growth inhibition of PfATP4-mutant resistant parasites – NITD609-resistant line, SYBR Green, dry powder, dose response (AID 1159571); type: functional, cell-based;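 note: parasites synchronized at ring stage by sorbitol before testing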
[34] = toxicity to human HepG2 hepatoma cells – cell-based, plate reader, dry powder samples, cytotoxicity control, dose response (AID 1159569); type: functional;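 note: inhibitor potency with signal falling toward the positive control level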

Paired box protein Pax-8, sequence (Q06710 whole entry): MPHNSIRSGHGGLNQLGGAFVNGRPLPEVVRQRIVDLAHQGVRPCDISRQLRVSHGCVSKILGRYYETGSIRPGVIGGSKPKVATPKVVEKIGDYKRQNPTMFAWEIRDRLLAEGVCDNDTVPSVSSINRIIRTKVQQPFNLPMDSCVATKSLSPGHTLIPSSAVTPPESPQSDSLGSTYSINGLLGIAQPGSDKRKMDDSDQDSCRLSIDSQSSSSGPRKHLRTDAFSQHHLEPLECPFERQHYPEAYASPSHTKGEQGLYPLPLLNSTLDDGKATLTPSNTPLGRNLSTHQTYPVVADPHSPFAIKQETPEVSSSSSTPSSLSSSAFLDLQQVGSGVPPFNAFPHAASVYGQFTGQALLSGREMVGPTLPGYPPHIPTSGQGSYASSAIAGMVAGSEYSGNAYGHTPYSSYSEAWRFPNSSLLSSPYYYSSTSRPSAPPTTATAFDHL
Endoplasmic reticulum aminopeptidase 1, sequence (Q9NZ08 whole entry): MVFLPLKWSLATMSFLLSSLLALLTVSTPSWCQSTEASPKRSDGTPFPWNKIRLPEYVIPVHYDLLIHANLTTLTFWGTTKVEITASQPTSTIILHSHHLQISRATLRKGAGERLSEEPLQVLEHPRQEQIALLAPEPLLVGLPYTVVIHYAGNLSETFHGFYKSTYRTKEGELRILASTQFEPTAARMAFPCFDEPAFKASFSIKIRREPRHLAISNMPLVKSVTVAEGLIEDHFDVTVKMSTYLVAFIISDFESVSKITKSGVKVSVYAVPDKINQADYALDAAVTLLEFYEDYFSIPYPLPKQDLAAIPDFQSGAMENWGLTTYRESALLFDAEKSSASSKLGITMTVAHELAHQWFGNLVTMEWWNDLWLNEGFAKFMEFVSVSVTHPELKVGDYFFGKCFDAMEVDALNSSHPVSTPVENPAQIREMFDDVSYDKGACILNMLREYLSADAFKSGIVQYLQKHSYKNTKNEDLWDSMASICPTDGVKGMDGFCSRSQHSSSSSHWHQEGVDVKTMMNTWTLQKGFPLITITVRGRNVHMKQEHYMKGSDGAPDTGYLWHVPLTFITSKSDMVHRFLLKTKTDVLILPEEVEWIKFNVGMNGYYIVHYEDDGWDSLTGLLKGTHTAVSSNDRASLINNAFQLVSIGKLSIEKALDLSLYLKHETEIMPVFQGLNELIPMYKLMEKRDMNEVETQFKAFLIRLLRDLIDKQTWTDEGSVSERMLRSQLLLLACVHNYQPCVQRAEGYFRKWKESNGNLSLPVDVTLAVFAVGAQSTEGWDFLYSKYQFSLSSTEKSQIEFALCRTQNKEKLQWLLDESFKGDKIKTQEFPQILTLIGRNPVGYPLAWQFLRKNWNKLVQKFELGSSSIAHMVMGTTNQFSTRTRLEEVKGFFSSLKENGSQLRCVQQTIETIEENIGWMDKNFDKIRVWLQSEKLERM
Metabotropic glutamate receptor 5, sequence (P31424 whole entry): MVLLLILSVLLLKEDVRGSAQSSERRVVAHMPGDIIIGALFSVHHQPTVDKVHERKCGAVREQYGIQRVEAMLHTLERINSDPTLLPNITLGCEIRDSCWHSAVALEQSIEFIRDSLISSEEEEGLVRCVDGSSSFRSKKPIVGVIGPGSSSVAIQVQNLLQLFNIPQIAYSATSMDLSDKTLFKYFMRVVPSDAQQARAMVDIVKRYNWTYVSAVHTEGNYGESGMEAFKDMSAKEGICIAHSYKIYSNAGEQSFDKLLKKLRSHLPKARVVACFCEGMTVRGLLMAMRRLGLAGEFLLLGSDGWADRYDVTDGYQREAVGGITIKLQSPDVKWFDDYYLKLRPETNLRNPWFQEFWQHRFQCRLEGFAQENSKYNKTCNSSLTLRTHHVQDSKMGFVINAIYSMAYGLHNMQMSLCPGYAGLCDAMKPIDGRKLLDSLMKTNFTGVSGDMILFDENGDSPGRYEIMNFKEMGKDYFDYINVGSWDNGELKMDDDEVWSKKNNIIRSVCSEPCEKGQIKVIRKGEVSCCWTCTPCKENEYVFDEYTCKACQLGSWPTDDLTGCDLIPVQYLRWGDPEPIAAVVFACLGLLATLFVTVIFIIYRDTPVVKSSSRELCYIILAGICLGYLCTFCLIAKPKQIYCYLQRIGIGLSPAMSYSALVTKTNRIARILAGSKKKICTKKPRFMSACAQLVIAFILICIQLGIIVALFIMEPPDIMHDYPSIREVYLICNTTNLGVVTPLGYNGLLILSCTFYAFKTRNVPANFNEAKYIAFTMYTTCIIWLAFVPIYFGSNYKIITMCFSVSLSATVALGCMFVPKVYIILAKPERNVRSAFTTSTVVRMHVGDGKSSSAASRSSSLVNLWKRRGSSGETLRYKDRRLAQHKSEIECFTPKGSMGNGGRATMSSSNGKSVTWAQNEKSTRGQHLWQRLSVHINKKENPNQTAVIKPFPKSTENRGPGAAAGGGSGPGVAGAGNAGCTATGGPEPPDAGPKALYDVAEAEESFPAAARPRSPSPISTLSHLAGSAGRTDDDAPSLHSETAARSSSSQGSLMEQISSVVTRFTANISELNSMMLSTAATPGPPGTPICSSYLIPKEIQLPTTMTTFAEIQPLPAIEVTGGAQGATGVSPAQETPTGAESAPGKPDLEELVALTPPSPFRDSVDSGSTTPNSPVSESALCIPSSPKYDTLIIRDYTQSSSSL
Mu-type opioid receptor, sequence (P35372 whole entry): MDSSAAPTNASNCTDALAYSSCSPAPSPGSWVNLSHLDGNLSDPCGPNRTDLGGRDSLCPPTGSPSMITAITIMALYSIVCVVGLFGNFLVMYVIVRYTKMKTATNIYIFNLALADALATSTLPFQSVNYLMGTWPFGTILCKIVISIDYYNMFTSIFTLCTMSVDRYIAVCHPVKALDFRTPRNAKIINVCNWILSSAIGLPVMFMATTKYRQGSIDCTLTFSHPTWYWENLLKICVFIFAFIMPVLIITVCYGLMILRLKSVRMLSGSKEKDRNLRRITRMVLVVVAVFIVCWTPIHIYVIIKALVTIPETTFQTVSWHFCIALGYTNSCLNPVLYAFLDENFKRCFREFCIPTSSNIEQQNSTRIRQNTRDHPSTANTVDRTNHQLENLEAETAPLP
Delta-type opioid receptor, sequence (P41143 whole entry): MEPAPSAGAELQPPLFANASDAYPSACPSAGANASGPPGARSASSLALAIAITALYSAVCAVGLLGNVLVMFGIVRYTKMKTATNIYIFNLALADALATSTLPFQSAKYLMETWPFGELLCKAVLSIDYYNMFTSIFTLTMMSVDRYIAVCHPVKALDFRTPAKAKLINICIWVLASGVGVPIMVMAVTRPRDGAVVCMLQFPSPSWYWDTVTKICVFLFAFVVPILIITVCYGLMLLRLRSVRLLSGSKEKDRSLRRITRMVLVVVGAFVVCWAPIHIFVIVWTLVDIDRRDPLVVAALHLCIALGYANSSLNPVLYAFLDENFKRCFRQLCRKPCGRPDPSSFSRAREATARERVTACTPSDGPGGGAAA

In the case of Cc1c(C(=O)O)sc2nc(CSc3ncc(C(F)(F)F)cc3Cl)nc(O)c12, the AC50 [1] is reported as > 52 µM (inactive).

For COc1ccc(-c2oc3ncnc(NCCCN4CCOCC4)c3c2-c2ccc(OC)cc2)cc1, the AC50 [2] was 1.51 µM (active), the IC50 [3] was 0.898 µM (active) and the IC50 [4] was > 16 µM (inactive). The CC50 [5] was 24.8 µM (active).

With CCOC(=O)c1oc2ccc(S(=O)(=O)n3nc(-c4ccccc4)cc3N)cc2c1C the AC50 [6] was 56.8 µM (active), the IC50 [3] was 1.08 µM (active) and the IC50 [4] was 1.01 µM (active). The AC50 [7] was 0.854 µM (active), the AbsAC35_uM [8] was 31.08 µM and the AC50 [9] was 7.82 µM (active).

For CCOC(=O)N1CCN(c2ccc(S(=O)(=O)N(Cc3ccccc3)Cc3ccccc3)cn2)CC1, the AC50 [6] was 45 µM (active), the AC50 [10] was 2.09 µM (active) and the AC50 [7] was 2.59 µM (active). For the same molecule, the AC50 [9] was 34.3 µM (active).

With CCc1c(C)c2cc(Cl)c(O)c(CN(CC)CC)c2oc1=O the AC50 [11] was 6.85 µM (active) and the IC50 (Aminopeptidase N) was 34.6 µM (active).

In the case of CS(=O)(=O)N1c2ccccc2CCC1C(=O)Nc1ccccn1 (configuration not stated), the EC50 [12] is reported as 0.944 µM.

With COc1ccc(C#Cc2ccc([C@@H]3[C@H](CO)N4CCCCN(C(=O)Nc5cccc(F)c5)C[C@@H]34)cc2)cc1 the AC50 [13] was 16.3 µM (active), the AC50 [14] was 40.6 µM (active) and the AC50 [15] was 1.43 µM (active). For the same molecule, the AC50 [16] was 15.3 µM (active), the AC50 [17] was 6.45 µM (active) and the AC50 [18] was 18.1 µM (active). For the same molecule, the AC50 [19] was 10 µM (active), the AC50 [20] was 10.5 µM (active) and the AC50 (Paired box protein Pax-8) was 9.89 µM (active).

For COc1cccc(-c2cn(CC[C@@H]3CC[C@@H](NC(C)=O)[C@H](CO)O3)nn2)c1, the AC50 (HeLa) was > 52 µM (inactive).

In the case of CCCC#Cc1ccc([C@@H]2[C@@H](C#N)N(C(=O)C3CCCCC3)[C@H]2CO)cc1, the AC50 [21] is reported as 31 µM (active), the AC50 [22] is reported as 41.8 µM (active) and the AC50 [23] is reported as 18.3 µM (active). The AC50 [24] was 34.5 µM (active), the AC50 [25] was 36 µM (active) and the AC50 [18] was 51 µM (active). The AC50 [26] was 14.1 µM (active) and the AC50 (Paired box protein Pax-8) was 6.02 µM (active).

With COC(=O)c1cc(Br)cnc1N1CCC(NC2CCC(C)CC2)CC1 (configuration not stated) the IC50 (Mu-type opioid receptor) was 8.6 µM (active) and the IC50 [27] was 18 µM (inactive).

In the case of Cc1cc(C(=O)N/N=C/c2cc(Br)ccc2OC(=O)c2ccccc2)[nH]n1, the AC50 (INS1) is reported as 1.91 µM (active), the AC50 [28] is reported as 43.1 µM (active) and the AC50 [29] is reported as 16.6 µM (active).

With COc1ccc(C#Cc2ccc3c(c2)O[C@@H](CN(C)C(=O)Nc2cccc(OC)c2)[C@@H](C)CN([C@@H](C)CO)S3(=O)=O)cc1 the AC50 [30] was 0.405 µM (active), the AC50 [15] was 1.09 µM (active) and the AC50 [31] was 0.603 µM (active). For the same molecule, the AC50 [32] was 0.399 µM (active), the AC50 [33] was 0.556 µM (active) and the AC50 [34] was > 100 µM (inactive).
